Results taken from US7829662B2, “Method of treating apoptosis and compositions thereof” (Dana Farber Cancer Institute, Inc., priority 2001, dated 2010).
Entries after “also recorded” stand apart in the source; their conditions may differ. Peptide text beside a SMILES is read from it. * marks the point of attachment. Cbz = O=C(OCc1ccccc1)*; CH2F = FC*

Key:
[1] = system: wt mitochondria; test: Cytochrome b5-dependent NADH oxidation assay; type: biochemical, Balb/cJ mice
Procedure: (d), mitochondria were preincubated for 2 min with 800 pmol CsA×mg protein^−1. (a), no additions. After 15 min, respiratory chain inhibitors were added and after another 2 minutes NADH fluorescence reading started. Arrow, 20 nmol NADH×mg protein^−1. In (e), 200 nmol mersalyl×mg protein was added 1 min before NADH.
In the cytochrome b5-dependent NADH oxidation assay, 1 mg/ml mitochondria were incubated in EB and treated as indicated. 400 pmol CCCP, 2 nmol rotenone and 1 nmol antimycin A×mg protein^−1 were added after the time indicated and the reaction transferred to a cuvette. After 2 min, 10 μM NADH was added and its oxidation monitored as the decrease in NADH fluorescence in a LS50B spectrofluorimeter (Perkin Elmer) set with λex=366 nm and λem=455 nm, with 5 nm slits.

[2] = system: wt mitochondria; test: Ascorbate/TMPD-driven respiration assay; type: biochemical, Balb/cJ mice; settings: 200 nmol Ca^2+ × mg protein^−1
Procedure: Symbols used are detailed in the legend. […] (a), no additions. […] Arrow, 6 mM ascorbate-Tris and 300 μM TMPD were added. Assays were developed to assess the amount of cytochrome c freely available in the IMS (FIGS. 3A, B). […] After the indicated time, 400 pmol CCCP and 1 nmol antimycin A×mg protein^−1 were added, and the reaction transferred to a Clark type oxygen electrode chamber. Final volume was 1 ml, 25° C. After 2 min, 6 mM ascorbate was added, followed after a further 3 min by 300 μM TMPD. The ascorbate-driven O2 consumption rate over the total TMPD-driven rate is plotted as a percentage of the ratio in the untreated mitochondria.

[3] = system: mitochondria; test: Mitochondrial swelling by side scatter at 545 nm; type: biochemical, Balb/cJ mice; settings: 400 μM Ca^2+, positive control
Procedure: tBID was evaluated to determine if it causes any swelling or depolarization that might reflect an opening of the PTP. Swelling of 0.5 mg/ml mitochondria incubated in EB was monitored by changes in side scatter at 545±2.5 nm using LS-50B spectrofluorimeter equipped with magnetic stirring at 25° C. Membrane potential changes of 0.5 mg/ml mitochondria incubated in experimental buffer were monitored from the dequenching of a 0.3 μM Rhodamine 123 (Molecular Probes, OR) solution in a LS-50B spectrofluorimeter at 25° C., using excitation and emission wavelengths set at 503±2.5 nm and 525±5 nm, respectively.
To determine if the BID α6 14mer (SEQ ID NO:1) induced mitochondrial swelling or release of cytochrome c across the mitochondrial outer membrane, mitochondria at 1 mg/ml were incubated in experimental buffer and, where indicated, 20 μM Ca^2+ and 10 μM 14mer were added. Where noted, mitochondria were preincubated with CsA. […] Mitochondria were incubated with 10 μM 14mer in the presence or in the absence of 1 μM CsA. At the indicated time in minutes, mitochondria were pelleted by centrifugation and cytochrome c in the pellet and in the supernatant was determined.

[4] = system: Wt and DKO MEFs; test: TEM morphology of mitochondria in cells after death stimuli; type: cell-based; settings: 12 hrs after treatment; 2 μM thapsigargin, 2 μg/ml brefeldin A, 1 μg/ml tunicamycin
Procedure: For apoptosis induction, MEFs were plated in 24-well plates at a density of 10^4 cells/well and grown for 24 hrs (Wei et al, 2001). Apoptosis was initiated by 2 μM thapsigargin, 2 μg/ml brefeldin A, 1 μg/ml tunicamycin or by 5 hrs of heat shock (43° C. in a humidified atmosphere of 95% air 5% CO2). Apoptosis was detected by flow cytometric detection of annexin V staining (BD Pharmingen) 24 hrs after the induction of cell death.
Wt and DKO MEFs were treated where indicated with brefeldin A or heat shock. After 12 hrs cells were fixed and imaged. Bar, 200 nm. The insets show 2× magnification of the boxed mitochondria. […] Wt and DKO MEFs were treated with the indicated death stimulus and after 12 hrs cells were fixed, stained and TEMs collected. Morphometric analysis was conducted.

[5] = system: calcein loaded mitochondria; test: Release of matrix-entrapped calcein (transient PTP opening); type: biochemical, Balb/cJ mice; settings: preincubated 3 min with 200 nmol/mg suramin; 320 pmol/mg tBID, 30 min
Procedure: To assess calcein release, mitochondria suspended in IB without BSA were loaded with 10 nmol×mg protein^−1 calcein-AM (Molecular Probes, Eugene, Oreg.) for 20 mins at room temperature in the dark. Following two washes in IB, the calcein loaded mitochondria were resuspended in IB at a final concentration of 10 mg/ml. 0.5 mg/ml calcein loaded mitochondria were incubated in EB and treated as described. After the indicated time, mitochondria were pelleted. Calcein was measured in an LS-50B spectrofluorimeter (Perkin Elmer) with excitation and emission wavelengths set at 488±2.5 nm and 542±2.5 nm, respectively.
After 30 min mitochondria were spun at 14000 g for 3 min at 4 C and the calcein content in the pellet and in the supernatant was determined. […] To determine if a BID α6 mutation variant, BID α6 mutein (SEQ ID NO:7), would inhibit cytochrome c release, His-tag p22 wt BID and the BID α6 mutein were expressed, purified on a Ni^2+ column, and cleaved with caspase 8.
Mitochondria were loaded with calcein and treated with 10 μM BID α6 14mer. Where noted, mitochondria were pretreated with 1 μM CsA. At the indicated time, mitochondria were pelleted by centrifugation and calcein in the pellet and in the supernatant was determined.

[6] = system: mitochondria; test: Adenylate kinase (AK) release from mitochondria; type: biochemical, Balb/cJ mice; settings: preincubation: 800 pmol CsA × mg protein^−1 or 0.1 μg × mg protein^−1 anti-BAK Ab
Procedure: AK release was determined similar to that described for cytochrome c release. AK was quantified measuring its enzymatic activity by assessing the rate of NADH oxidation at 366 nm using a Beckman DU-10 spectrophotometer. 10 μl of the supernatant or pellet were added to a reaction mixture containing 0.5 mM phosphoenolpyruvate, ATP, AMP, 1 mM NADH, and 60 units of pyruvate kinase and lactate dehydrogenase, in 130 mM KCl, 6 mM MgSO4 and 100 mM Tris-Cl. Final volume 0.1 ml, pH 7.4, 25° C. AK release is reported (as described for cytochrome c) as the percentage of the supernatant over the total (pellet plus supernatant).

[7] = system: mitochondria; test: Cytochrome c release from isolated liver mitochondria (immunoblot densitometry or ELISA); type: biochemical, Balb/cJ mice
Procedure: Mitochondria were isolated from liver of Balb/cJ mice by standard differential centrifugation, and resuspended in isolation buffer (IB) (0.2 M sucrose, 10 mM Tris-MOPS pH 7.4, 0.1 mM EGTA-Tris, 0.1% delipidated BSA).
At the indicated time, mitochondria were pelleted by centrifugation at 12000×g at 4° C. for 3 min, and resuspended in the same volume of EB. Cytochrome c release was determined either by densitometry (Stratagene Eagle Eye II, BioRad) of immunoblots, or by rat/mouse specific ELISA performed on mitochondrial pellet and supernatant diluted 1:20 in PBS containing 0.5% Triton X-100 (R&D systems, MN). Cytochrome c is reported as the percentage of the supernatant over the total (pellet plus supernatant).
For SDS-PAGE, 20 μg of mitochondrial protein was loaded in each lane of a 12% NuPAGE (NoVex, CA) gel. After separation, proteins were transferred onto PVDF membranes (Immobilon-P, Millipore, Calif.) and membranes were probed as indicated with the following primary antibodies: anti-cytochrome c (Pharmingen, CA, 1:1000); anti-BID (1:1500); anti-BAK (Calbiochem, CA, 1:1000). HRPO-conjugated secondary antibodies (CalTag, CA, 1:2000) were visualized by chemiluminescence (Amersham, N.J.).
Mitochondria were incubated with increasing amounts of digitonin to assess how much cytochrome c was released from IMS by the selective solubilization of the OM (Hoppel and Cooper, 107, 367-375, 1968). To monitor interaction of digitonin with the […], uncoupled respiration in the presence of excess exogenous cytochrome c was assessed. Specifically 0.5 mg/ml mitochondria was incubated in EB with the indicated concentration of digitonin. After 5 minutes, mitochondria were centrifuged and cytochrome c content in the resulting pellet and supernatant were determined as described. Uncoupled JO2, uncoupled respiratory rate was recorded in parallel experiments. After 5 minutes of incubation with the indicated concentration of digitonin, mitochondria were treated with 400 pmol CCCP×mg protein-1 in the presence of 10 nmol cytochrome c×mg protein.

## [Ca+2] [Ca^2+]
[1]; 200 nmol Ca^2+ × mg protein^−1
  cytochrome b5-dependent NADH oxidation rate: increased the rate of NADH oxidation
[2]
  ascorbate-driven respiration: increases the ascorbate-driven respiration
[3]
  mitochondrial swelling: maximal swelling

## C[C@H]1CCC/C=C/[C@@H]2C[C@H](O)C[C@H]2[C@H](O)/C=C/C(=O)O1 [brefeldin A]
[4]
  mitochondrial morphology in cells: frequent mitochondria with Class II morphology

## COC(CNC(=O)c1ccccc1OCC(=O)O)[CH2][Hg][OH] (centres unmarked) [mersalyl]
[1]; 200 nmol mersalyl × mg protein added 1 min before NADH
  effect on increases in NADH oxidation: totally inhibited

## Cc1ccc(C(=O)Nc2ccc(S(=O)(=O)O)c3cc(S(=O)(=O)O)cc(S(=O)(=O)O)c23)cc1NC(=O)c1cccc(NC(=O)Nc2cccc(C(=O)Nc3cc(C(=O)Nc4ccc(S(=O)(=O)O)c5cc(S(=O)(=O)O)cc(S(=O)(=O)O)c45)ccc3C)c2)c1 [suramin]
[5]
  effect on tBID-induced calcein release (transient permeability transition): blocked tBID-induced transient permeability transition; also recorded: specifically inhibits calcein release induced by tBID

## C/C=C(/C)C(=O)O[C@H]1C(C)=C2[C@H]([C@@H]1OC(=O)CCCCCCC)[C@@](C)(OC(C)=O)C[C@H](OC(=O)CCC)[C@@]1(O)[C@H]2OC(=O)[C@@]1(C)O [thapsigargin]
[4]
  mitochondrial morphology in cells: frequent mitochondria with Class II morphology

## COC(=O)C[C@H](NC(=O)[C@H](C)NC(=O)[C@@H](NC(=O)OCc1ccccc1)C(C)C)C(=O)CF [zVAD-fmk] (Cbz-Val-Ala-Asp(OMe)-CH2F)
[6]
  effect on tBID induced AK release: Neither anti-BCL-XL antibody nor the broad specificity caspase inhibitor zVAD-fmk had any effect
[7]; preincubation: 800 pmol CsA × mg protein^−1 or 0.1 μg × mg protein^−1 anti-BAK Ab
  effect on tBID induced cytochrome c release: Neither anti-BCL-XL antibody nor the broad specificity caspase inhibitor zVAD-fmk had any effect

## NH2-XMLXXXXLLAAAVA-COOH [BID α6 mutein, BID α6 mutation variant where two lysine residues were changed to alanine residues; p7/p15 caspase cleaved]
[1]; BID α6 mutein compared to wt
  cytochrome c mobilization (cytochrome b5-dependent NADH oxidation): cytochrome c had not been mobilized; also recorded: fails to mobilize cytochrome c
[7]; 1.6 pmol p7/p15 caspase cleaved BID × mg protein^−1
  cytochrome c released from mitochondria: ~20%
[7]; 1.6 pmol p7/p15 caspase cleaved BID × mg protein^−1, compared with wt p7/p15 BID
  cytochrome c release from mitochondria: impaired release of cytochrome c; also recorded: does not completely release cytochrome c

## tunicamycin
[4]
  mitochondrial morphology in cells: frequent mitochondria with Class II morphology

B1: myristoylated p7/p15 BID complex: Wt p22 BID cleaved with recombinant caspase 8 into the active p7/p15 BID complex (protein)
p7: MDSEVSNGSGLGAKHITDLLVFGFLQSSGCTRQELEVLGRELPVQAYWEADLEDELQTD
p15: GSQASRSFNQGRIEPDSESQEEIIHNIARHLAQIGDEMDHNIQPTLVRQLAAQFMNGSLSEEDKRNCLAKALDEVKTAFPRDMENDKAMLIMTMLLAKKVASHAPSLLRDVFHTTVNFINQNLFSYVRNLVRNEMD
modifications: left off: small tags and cut ends
[7]; 0.32 pmol × mg protein^−1
  cytochrome c release from mitochondria: Complete cytochrome c release
